# Columns and labels:
# MST4 = test: KINOMEscan; details: 50000 nM
# Protocol: KINOMEscan™ selectivity screen
# (§1) The assay was perfor med at DiscoveRx Corporation according the methods published previously5. […] The kinases were produced in HEK-293 cells and subsequently tagged with DNA for qPCR detection. Streptavidin-coated magnetic beads were treated with biotinylated small molecule ligands to generate affinity resins for kinase
# (§2) inhibitor or DMSO control was performed in polypropylene 384-well plates for 1 hr at room temperature. After wash with PBS buffer containing 0.05% Tween 20, the beads were incubated in elution buffer (PBS containing 0.05 % Tween 20 and 0.5 μM non-biotinylated affinity ligand) for 30 minutes at room temperature. The kinase concentration in the eluates was measured by qPCR.
# ERK1/2 = test: Western blot of ERK1/2 phosphorylation; assay type: cell-based, Mouse; details: Neuro 2A cells
# Protocol: Neuro 2A cells were seeded in 12-well plates in DMEM containing 5% FBS for 24 hr.
# After overnight serum starvation (in 0% FBS DMEM), cells were incubated for 30 min at 37 °C with G7 or LY294002 or Torin 1 (Sigma Aldrich) at various concentrations, or DMSO control. IGF-1 was added to each well at a final concentration of 100 ng/mL. After 30-min incubation cells were washed with cold PBS and lysed with 50 µL lysis buffer containing 1% Triton X-100 and protease/phosphatase inhibitors (Cell Signaling Technology) or RIPA buffer (Santa Cruz Biotech). Samples were electrophoresed in 4–12% Bis-Tris gels (Life Technologies) at 150 V using MOPS SDS running buffer. Proteins were transferred electrophoretically to a PVDF or nitrocellulose membrane. For detection of cleaved […]
# caspase 3 a Trans-Blot Turbo Transfer System (Bio-Rad, 25 V for 25 min) with PVDF membrane were used. […]
# anti- GAPDH (14C10) antibody (#2118) (all antibodies were from Cell Signaling Technology unless indicated, 1:1000 dilution was used) at 4°C overnight, washed three times with TBS-T, then incubated with peroxidase-conjugated secondary antibody (Sigma-Aldrich) for 1 hr at room temperature. […] Band intensity was quantitated using Kodak 1D imaging analysis software. […]
# FLT4 = test: KINOMEscan; details: 50000 nM
# Protocol: KINOMEscan™ selectivity screen
# (§3) The assay was perfor med at DiscoveRx Corporation according the methods published previously5. Briefly, Kinase-tagged T7 phage strains were grown in parallel in an E. coli host derived from the BL21 strain. E. coli were grown to log-phase and infected with T7 phage from a frozen stock and incubated with shaking at 32°C until lysis (90-150 minutes). The kinases were produced in HEK-293 cells and subsequently tagged with DNA for qPCR detection. Streptavidin-coated magnetic beads were treated with biotinylated small molecule ligands to generate affinity resins for kinase
# as §2
# PLK2 = test: KINOMEscan; details: 50000 nM
# Protocol: KINOMEscan™ selectivity screen
# (§4) Briefly, Kinase-tagged T7 phage strains were grown in parallel in an E. coli host derived from the BL21 strain. E. coli were grown to log-phase and infected with T7 phage from a frozen stock and incubated with shaking at 32°C until lysis (90-150 minutes). The kinases were produced in HEK-293 cells and subsequently tagged with DNA for qPCR detection. Streptavidin-coated magnetic beads were treated with biotinylated small molecule ligands to generate affinity resins for kinase
# as §2
# TIE1 = test: KINOMEscan; details: 50000 nM
# Protocol: KINOMEscan™ selectivity screen
# as §1, §2
# CDK7 = test: KINOMEscan; details: 50000 nM
# Protocol: KINOMEscan™ selectivity screen
# as §3, §2
# SIK = test: KINOMEscan; details: 50000 nM
# Protocol: KINOMEscan™ selectivity screen
# as §3, §2
# NDR2 = test: KINOMEscan; details: 50000 nM
# Protocol: as §4, §2
# LTK = test: KINOMEscan; details: 50000 nM
# Protocol: KINOMEscan™ selectivity screen
# as §3, §2
# PIM1 = test: KINOMEscan; details: 50000 nM
# Protocol: KINOMEscan™ selectivity screen
# as §3, §2
# PIK3C2G = test: KINOMEscan; details: 50000 nM
# Protocol: KINOMEscan™ selectivity screen
# as §3, §2
# MKNK2 = test: KINOMEscan; details: 50000 nM
# Protocol: KINOMEscan™ selectivity screen
# as §4, §2
# MYLK4 = test: KINOMEscan; details: 50000 nM
# Protocol: KINOMEscan™ selectivity screen
# as §3, §2
# PDGFRA = test: KINOMEscan; details: 50000 nM
# Protocol: KINOMEscan™ selectivity screen
# as §3, §2
# ALK(C1156Y) = test: KINOMEscan; details: 50000 nM
# Protocol: KINOMEscan™ selectivity screen
# as §3, §2
# AURKA = test: KINOMEscan; details: 50000 nM
# Protocol: KINOMEscan™ selectivity screen
# as §3, §2
# TLK2 = test: KINOMEscan; details: 50000 nM
# Protocol: KINOMEscan™ selectivity screen
# as §4, §2
# MLK1 = test: KINOMEscan; details: 50000 nM
# Protocol: KINOMEscan™ selectivity screen
# as §3, §2
# KIT(V559D) = test: KINOMEscan; details: 50000 nM
# Protocol: KINOMEscan™ selectivity screen
# as §4, §2
# TBK1 = test: KINOMEscan; details: 50000 nM
# Protocol: KINOMEscan™ selectivity screen
# as §3, §2
# Akt = system: T1, Akt; test: In vitro phosphorylation of Akt T308 by PDK1; assay type: biochemical; details: inactive Akt, PE/PC/PS/PIP3 vesicles
# T1 construct: purchased Millipore 14-279
# NEK9 = test: KINOMEscan; details: 50000 nM
# Protocol: KINOMEscan™ selectivity screen
# as §3, §2
# PRP4 = system: T2, PRP4; test: KINOMEscan; assay type: binding, human; details: 50000 nM
# T2 construct: purchased DiscoveRx KINOMEscan
# AKT1 = test: KINOMEscan; details: 50000 nM
# Protocol: KINOMEscan™ selectivity screen
# as §3, §2
# STK35 = test: KINOMEscan; details: 50000 nM
# Protocol: KINOMEscan™ selectivity screen
# as §4, §2
# LNCaP cells = test: MTS cell proliferation assay; assay type: cell-based; details: 1 day, 40% confluent
# Protocol: Neuro 2A cells or NIH/3T3 cells (ATCC) were seeded at various confluency in a 96-well plate in 100 µL DMEM containing 5% FBS or 10% FBS with 1% penicillin streptomucin, respectively, at 37 °C in a 5% CO2 and 95% humidity incubator for 18 hr. To each well 1 µL inhibitor with various concentrations or DMSO was added. The final concentrations of the tested inhibitors were 0, 5, 10, 20, 40 and 80 µM for G7 and LY, and 0, 5, 10, 20, 40 and 80 nM for Torin1, based on their respective IC50 values (~µM for G7 and LY and ~ nM for Torin 1). After 24 hr, 20 µL of CellTiter 96® AQueous One Solution Reagent (Promega) were added. The plate was placed in the incubator for 2 h and absorbance at 490 nm was measured with a Synergy HT Microplate Reader (Bio-Tek).
# Fig. S8. Effect of G7 on proliferation of LNCaP cells. Cells that were 40% confluent in RPMI-1640 medium containing 10% FBS were treated with inhibitors for 1 day and subjected to MTS assays. *, µM for both G7 and LY and nM for Torin1. Data represent means ± SEM (n=3). G7, 4-phenylquinolin-2(1H)-one, LY, LY294002.
# RIOK1 = test: KINOMEscan; details: 50000 nM
# Protocol: KINOMEscan™ selectivity screen
# as §3, §2
# KIT-autoinhibited = test: KINOMEscan; details: 50000 nM
# Protocol: KINOMEscan™ selectivity screen
# as §3, §2
# MAP3K4 = test: KINOMEscan; details: 50000 nM
# Protocol: KINOMEscan™ selectivity screen
# as §3, §2
# BLK = test: KINOMEscan; details: 50000 nM
# Protocol: KINOMEscan™ selectivity screen
# as §4, §2
smiles,measurement,setting,value
"Oc1cc(-c2ccccc2)c2ccccc2n1 [G7, 4-phenylquinolin-2(1H)-one]",Percent Control,MST4,53%
same,phosphorylation of ERK1/2,ERK1/2,neither inhibited
same,Percent Control,FLT4,72%
same,Percent Control,PLK2,78%
same,Percent Control,TIE1,84%
same,Percent Control,CDK7,84%
same,Percent Control,SIK,65%
same,Percent Control,NDR2,88%
same,Percent Control,LTK,95%
same,Percent Control,PIM1,49%
same,Percent Control,PIK3C2G,97%
same,Percent Control,MKNK2,65%
same,Percent Control,MYLK4,43%
same,Percent Control,PDGFRA,52%
same,Percent Control,ALK(C1156Y),80%
same,Percent Control,AURKA,50%
same,Percent Control,TLK2,89%
same,Percent Control,MLK1,82%
same,Percent Control,KIT(V559D),20%
same,Percent Control,TBK1,95%
same,in vitro phosphorylation of T308 by PDK1,Akt,impaired
same,Percent Control,NEK9,80%
same,Percent Control,PRP4,79%
same,Percent Control,AKT1,100%
same,Percent Control,STK35,90%
same,proliferation of LNCaP prostate cancer cells,LNCaP cells,inhibited the proliferation
same,Percent Control,RIOK1,95%
same,Percent Control,KIT-autoinhibited,77%
same,Percent Control,MAP3K4,100%
same,Percent Control,BLK,79%

# — publication PMC5601486, “Identification of 4-phenylquinolin-2(1H)-one as a specific allosteric inhibitor of Akt” (Scientific Reports, 2017)
